Legend:
Format in all cases: cell-based
[1] = test system: KRAS G12C-dependent Ba/F3 cells; assay: Ba/F3 proliferation assay, KRAS G12C; details: Mus musculus, BaF3, 72 h, AlamarBlue
How it was run: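 Ba/F3 cells were retrovirally transduced with KRAS G12 mutant vectors, puromycin-selected (1 μg/mL) and grown without IL-3 to make them KRAS-dependent. Compounds were tested in technical duplicates, viability was read by AlamarBlue fluorescence, and values came from curve fitting.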

NCI-H2122 cells = assay: NCI-H2122 CTG proliferation assay (120 h) (NSCLC, G12C); details: Homo sapiens
How it was run: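 NCI-H2122 cells (KRAS G12C NSCLC), 200 per well in RPMI with 10% FCS, were dosed with compound on day 1 and incubated 120 h at 37 °C. Viability was read by CellTiter-Glo luminescence as percent of DMSO control, and IC50 was fitted with a four-parameter model.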

LOVO cells = assay: LOVO CTG proliferation assay (120 h) (CRC, G13D); details: Homo sapiens, CTG 120 h
How it was run: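 LOVO cells, 1000 per well in DMEM + 10% FCS, were plated overnight and then dosed with compound from DMSO stock. After 120 h at 37 °C, viability was read by CellTiter-Glo luminescence as a percentage of DMSO controls. IC50 was derived by four-parameter non-linear regression.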

| Compound | IC50 [1] [nM] | IC50 (NCI-H2122 cells) [nM] | IC50 (LOVO cells) [nM] |
| --- | --- | --- | --- |
| CC(=O)N1CCN(c2cc(O[C@@H](C)[C@@H]3CCCN3C)nc(-c3noc4c3CCC[C@@]43CCCc4sc(N)c(C#N)c43)n2)CC12CC2 [II-178] | 31 | 948 | 624 |
| C[C@H](Oc1cc(N2Cc3cnn(C)c3C2)nc(-c2onc3c2CCC[C@@]32CCCc3sc(N)c(C#N)c32)n1)[C@@H]1CCCN1C [I-19] | 76 | 2710 | 479 |
| C[C@H](Oc1cc(N2C[C@@H]3[C@@H](N)[C@@H]3C2)nc(-c2noc3c2CCC[C@@]32CCCc3sc(N)c(C#N)c32)n1)[C@@H]1CCCN1C [II-167] | 884 | 9790 | 6430 |
| C[C@H](Oc1cc(N2CC3COCC(C2)N3)nc(-c2noc3c2CCC[C@@]32CCCc3sc(N)c(C#N)c32)n1)[C@@H]1CCCN1C [II-160] | 1720 | 3190 | 7610 |
| CC(C)N1CCCN(c2cc(-c3ccn(C)n3)nc(-c3noc4c3CCC[C@@]43CCCc4sc(N)c(C#N)c43)n2)[C@@H](C)C1 [II-170] | 26 | 942 | 270 |
| C[C@H]1CNCCCN1c1cc(-c2ccn(C)n2)nc(-c2noc3c2CCC[C@@]32CCCc3sc(N)c(C#N)c32)n1 [II-140] | 1020 | 8240 | 5490 |
| C[C@H](Oc1cc(-c2cccc(C(N)=O)c2)nc(-c2noc3c2CCC[C@@]32CCCc3sc(N)c(C#N)c32)n1)[C@@H]1CCCN1C [II-133] | 33 | 180 | 459 |
| C[C@H](Oc1cc(-c2ccn(C[C@H]3CCOC3)n2)nc(-c2noc3c2CCC[C@@]32CCCc3sc(N)c(C#N)c32)n1)[C@@H]1CCCN1C [II-129] | 11 | 198 | 69 |
| C[C@H](Oc1nc(-c2noc3c2CCC[C@@]32CCCc3sc(N)c(C#N)c32)nc(N2CCNC3(CC3)C2)c1F)[C@@H]1C[C@@H](F)CN1C [II-155] | 169 | 929 | 107 |
| C[C@H](Oc1cc(-n2cnc(C(=O)N(C)C)c2)nc(-c2noc3c2CCC[C@@]32CCCc3sc(N)c(C#N)c32)n1)[C@@H]1CCCN1C [II-126] | 32 | 2690 | 251 |
| C[C@H](Oc1cc(N2CCNC3(COC3)C2)nc(-c2noc3c2CCC[C@@]32CCCc3sc(N)c(C#N)c32)n1)[C@@H]1C[C@@H](F)CN1C [II-150] | 55 | 2510 | 81 |
| C[C@H](Oc1cc(-c2ccn(C)n2)nc(-c2noc3c2CCC[C@@]32CCCc3sc(N)c(C#N)c32)n1)[C@@H]1C[C@H](F)CN1C [II-144] | 2 | 3690 | 2840 |
| C[C@H](Oc1cc(-n2cc3c(n2)CNC3)nc(-c2noc3c2CCC[C@@]32CCCc3sc(N)c(C#N)c32)n1)[C@@H]1CCCN1C [II-168] | 62 | 1770 | 193 |
| C[C@H](Oc1cc(-n2nccc2-c2ccncc2)nc(-c2noc3c2CCC[C@@]32CCCc3sc(N)c(C#N)c32)n1)[C@@H]1CCCN1C [II-131] | 16 | 672 | 225 |
| C[C@H](Oc1cc(-n2cc(-c3cncs3)nn2)nc(-c2noc3c2CCC[C@@]32CCCc3sc(N)c(C#N)c32)n1)[C@@H]1CCCN1C [II-125] | 17 | 768 | 97 |
| CC(C)N1CCCN(c2cc(-n3ccnc3)nc(-c3noc4c3CCC[C@@]43CCCc4sc(N)c(C#N)c43)n2)[C@@H](C)C1 [II-169] | 107 | 2280 | 553 |
| C[C@H](Oc1cc(N2C[C@H](C)N(C)[C@@H](C)C2)nc(-c2noc3c2CCC[C@@]32CCCc3sc(N)c(C#N)c32)n1)[C@@H]1CCCN1C [II-173] | 296 | 1460 | 1230 |
| C[C@H](O)Cn1ncc(-c2cc(O[C@@H](C)[C@@H]3CCCN3C)nc(-c3noc4c3CCC[C@@]43CCCc4sc(N)c(C#N)c43)n2)n1 [II-134] | 41 | 4120 | 3240 |
| CC(C)[C@@H]1CN(c2cc(O[C@@H](C)[C@@H]3CCCN3C)nc(-c3noc4c3CCC[C@@]43CCCc4sc(N)c(C#N)c43)n2)CCN1 [II-166] | 386 | 1250 | 863 |
| C[C@H](Oc1cc([C@H]2CCNC2)nc(-c2noc3c2CCC[C@@]32CCCc3sc(N)c(C#N)c32)n1)[C@@H]1CCCN1C [II-163] | 373 | 4500 | 1090 |
| C[C@H](Oc1cc(-n2ccc(-c3cnccn3)n2)nc(-c2noc3c2CCC[C@@]32CCCc3sc(N)c(C#N)c32)n1)[C@@H]1CCCN1C [II-130] | 6 | 221 | 190 |
| C[C@H](Oc1cc(-c2ccn([C@H]3CCOC3)n2)nc(-c2noc3c2CCC[C@@]32CCCc3sc(N)c(C#N)c32)n1)[C@@H]1CCCN1C [II-127] | 13 | 189 | 131 |

| Compound | IC50 [1] [nM] | IC50 (NCI-H2122 cells) [nM] | IC50 (LOVO cells) [nM] |
| --- | --- | --- | --- |
| C[C@H](Oc1cc(-c2ccn(Cc3ncco3)n2)nc(-c2noc3c2CCC[C@@]32CCCc3sc(N)c(C#N)c32)n1)[C@@H]1CCCN1C [II-128] | 10 | 361 | 91 |
| C[C@@H]1CN(c2cc(O[C@@H](C)[C@@H]3CCCN3C)nc(-c3noc4c3CCC[C@@]43CCCc4sc(N)c(C#N)c43)n2)CCN1 [II-161] | 910 | 4850 | 472 |
| C[C@H](Oc1cc(N2CCN(C)C3(CC3)C2)nc(-c2noc3c2CCC[C@@]32CCCc3sc(N)c(C#N)c32)n1)[C@@H]1C[C@@H](F)CN1C [II-149] | 333 | 2550 | 270 |
| C[C@H](Oc1cc(N2CCNC[C@@]23CCOC3)nc(-c2onc3c2CCC[C@@]32CCCc3sc(N)c(C#N)c32)n1)[C@@H]1CCCN1C [I-13] | 1540 | 6470 | 1510 |
| C[C@H](Oc1cc(N2CCN[C@@H](C)C2)nc(-c2noc3c2CCC[C@@]32CCCc3sc(N)c(C#N)c32)n1)[C@@H]1CCCN1C [II-162] | 526 | 3320 | 401 |
| C[C@H](Oc1cc(-n2cncn2)nc(-c2onc3c2CCC[C@@]32CCCc3sc(N)c(C#N)c32)n1)[C@@H]1CCCN1C [I-18] | 11 | 1760 | 260 |
| C[C@H](Oc1cc(N2CCN(C)C3(CCOC3)C2)nc(-c2noc3c2CCC[C@@]32CCCc3sc(N)c(C#N)c32)n1)[C@@H]1C[C@@H](F)CN1C (stereo partly shown) [II-151] | 393 | 3580 | 1060 |
| C[C@H](Oc1cc(N2CCOC2=O)nc(-c2noc3c2CCC[C@@]32CCCc3sc(N)c(C#N)c32)n1)[C@@H]1CCCN1C [II-143] | 5 | 584 | 96 |
| C[C@H](Oc1cc(N2CCN(C)C3(CC3)C2)nc(-c2noc3c2CCC[C@@]32CCCc3sc(N)c(C#N)c32)n1)[C@@H]1CCCN1C [II-171] | 232 | 3060 | 593 |
| C[C@H](Oc1cc(-n2cc(C(=O)N(C)C)nn2)nc(-c2noc3c2CCC[C@@]32CCCc3sc(N)c(C#N)c32)n1)[C@@H]1CCCN1C [II-132] | 10 | 188 | 120 |
| CO[C@@H]1C[C@@H]([C@H](C)Oc2cc(-c3cnn(C)n3)nc(-c3onc4c3CCC[C@@]43CCCc4sc(N)c(C#N)c43)n2)N(C)C1 [I-17] | 40 | 4230 | 730 |
| C[C@H](Oc1cc(C2=CCNCC2)nc(-c2noc3c2CCC[C@@]32CCCc3sc(N)c(C#N)c32)n1)[C@@H]1CCCN1C [II-164] | 240 | 4580 | 246 |
| C[C@H](Oc1cc(-n2cc3c(n2)CCN(C)C3)nc(-c2noc3c2CCC[C@@]32CCCc3sc(N)c(C#N)c32)n1)[C@@H]1CCCN1C [II-141] | 134 | 2830 | 284 |
| C[C@H](Oc1cc(-n2ccc(C3(O)COC3)n2)nc(-c2noc3c2CCC[C@@]32CCCc3sc(N)c(C#N)c32)n1)[C@@H]1CCCN1C [II-189] | 9 | – | 39 |
| C[C@H](Oc1cc(-n2cncc3ccnc2-3)nc(-c2onc3c2CCC[C@@]32CCCc3sc(N)c(C#N)c32)n1)[C@@H]1CCCN1C [I-14] | 15 | 2870 | 1350 |
| CO[C@H]1CCN(C)[C@@H]1[C@H](C)Oc1cc(-n2ccc(C(N)=O)n2)nc(-c2noc3c2CCC[C@@]32CCCc3sc(N)c(C#N)c32)n1 [II-201] | 3 | – | 33 |
| C[C@H](Oc1cc(N2CCNC[C@]23CCOC3)nc(-c2onc3c2CCC[C@@]32CCCc3sc(N)c(C#N)c32)n1)[C@@H]1CCCN1C [I-12] | 224 | 3280 | 824 |
| C[C@H]1CNCCCN1c1cc(-n2ccnc2)nc(-c2noc3c2CCC[C@@]32CCCc3sc(N)c(C#N)c32)n1 [II-142] | 2200 | 10500 | 2640 |
| CO[C@H]1CCN(C)[C@@H]1[C@H](C)Oc1cc(-n2ccc(CC(=O)NC(C)C)n2)nc(-c2noc3c2CCC[C@@]32CCCc3sc(N)c(C#N)c32)n1 [II-183] | 2 | – | 9 |
| CO[C@H]1CCN(C)[C@@H]1[C@H](C)Oc1cc(-n2ccc(C(=O)N(C)C3COC3)n2)nc(-c2noc3c2CCC[C@@]32CCCc3sc(N)c(C#N)c32)n1 [II-199] | 3 | – | 34 |
| CO[C@H]1CCN(C)[C@@H]1[C@H](C)Oc1cc(-n2ccc(C(=O)N[C@@H](C)c3ccccn3)n2)nc(-c2noc3c2CCC[C@@]32CCCc3sc(N)c(C#N)c32)n1 [II-196] | 1 | – | 15 |

— US20240174690A1, “ANNULATED 2-AMINO-3-CYANO THIOPHENES AND DERIVATIVES FOR THE TREATMENT OF CANCER” (BOEHRINGER INGELHEIM INTERNATIONAL GMBH, priority 2021, published 2024)
